In ChEMBL document CHEMBL5104116, “Strategies for targeting the P2Y12 receptor in the central nervous system” (Bioorg Med Chem Lett, 2022):
Each block holds one compound with its values, some of them ahead of it.

How the values were obtained:
P2Y purinoceptor 12 [1] = target: T1, P2Y purinoceptor 12 (Homo sapiens, UniProt Q9H244); assay: Inhibition of P2Y12 (unknown origin)
P2Y purinoceptor 12 [2] = target: T1, P2Y purinoceptor 12; assay: Displacement of [3H]-2MesADP from recombinant human P2Y12 transfected in HEK cell membrane assessed as inhibition constant; assay type: cell membranes
P2Y purinoceptor 12 [3] = target: T1, P2Y purinoceptor 12; assay: Displacement of [3H]-2MesADP from human P2Y12 in HEK cell membrane assessed as inhibition constant incubated for 1 hr by scintillation counter method; assay type: cell membranes
P2Y purinoceptor 12 [4] = target: T1, P2Y purinoceptor 12; assay: Displacement of [3H]PSB-0413 from P2Y12 in human platelets assessed as dissociation constant; assay type: cell-based, Platelet
P2Y purinoceptor 12 [5] = target: T1, P2Y purinoceptor 12; assay: Displacement of [33P]-2MeS-ADP from recombinant human P2Y12 transfected in HEK cell membrane assessed as inhibition constant incubated for 1 hr by competitive binding assay; assay type: cell membranes
P2Y purinoceptor 12 [6] = target: T1, P2Y purinoceptor 12; assay: Binding affinity to P2Y12 (unknown origin) assessed as inhibition constant

T1 sequence (Q9H244 whole entry): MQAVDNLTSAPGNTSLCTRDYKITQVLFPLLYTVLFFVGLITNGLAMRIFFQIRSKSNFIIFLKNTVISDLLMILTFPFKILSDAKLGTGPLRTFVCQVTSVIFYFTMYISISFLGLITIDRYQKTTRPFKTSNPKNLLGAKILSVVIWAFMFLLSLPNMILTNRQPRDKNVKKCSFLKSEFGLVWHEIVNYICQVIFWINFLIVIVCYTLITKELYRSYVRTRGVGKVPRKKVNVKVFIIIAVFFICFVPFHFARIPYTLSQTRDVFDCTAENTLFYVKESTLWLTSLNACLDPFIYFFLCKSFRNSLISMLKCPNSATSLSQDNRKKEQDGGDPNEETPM

Structure (SMILES): CSc1nc(N)c2ncn([C@@H]3O[C@H](COP(=O)(O)OP(=O)(O)O)[C@@H](O)[C@H]3O)c2n1
- Ki (P2Y purinoceptor 12 [2]): 32.1 nM

Structure (SMILES): CCCc1cc2c(N3CCn4c(nnc4C(F)(F)F)C3)nc(OCCF)nc2s1
- Ki (P2Y purinoceptor 12 [3]): 0.3 nM

Structure (SMILES): [3H]C([3H])C([3H])([3H])CSc1nc(N)c2ncn([C@@H]3O[C@H](COP(=O)(O)OP(=O)(O)O)[C@@H](O)[C@H]3O)c2n1
- Kd (P2Y purinoceptor 12 [4]): 6.5 nM

Structure (SMILES): NCc1cc2c(N3CCN(C(=O)c4ccc(-c5ccccc5)cc4)CC3)nc(N3CCNC(=O)C3)nc2s1
- Ki (P2Y purinoceptor 12 [5]): 9 nM

Structure (SMILES): COC(=O)[C@H](c1ccccc1Cl)N1CCc2sccc2C1 [CLOPIDOGREL]
- IC50 (P2Y purinoceptor 12 [1]): 2400 nM

Structure (SMILES): CCCSc1nc(N[C@@H]2C[C@H]2c2ccc(F)c(F)c2)c2nnn([C@@H]3C[C@H](OCCO)[C@@H](O)[C@H]3O)c2n1 [TICAGRELOR]
- IC50 (P2Y purinoceptor 12 [1]): 10 nM

Results, then the compound that gave them:

- IC50 (P2Y purinoceptor 12 [1]): 1800 nM
Structure (SMILES): CC(=O)Oc1cc2c(s1)CCN(C(C(=O)C1CC1)c1ccccc1F)C2 (stereo not drawn)

- Ki (P2Y purinoceptor 12 [6]): 3.5 nM
Structure (SMILES): CCCCCOC(=O)N1CCN(C(=O)[C@H](CCC(=O)O)NC(=O)c2cc(N3CCC(COC)CC3)cc(-c3ccccc3)n2)CC1
